Test results from patent US20250374926A1, “NOVEL DERIVATIVES OF NON-CODED AMINO ACIDS AND THEIR USE IN CROP PROTECTION” (FORTEPHEST LTD., priority 2022, published 2025).

Tests used:
Assay type in all cases: in vivo
Lettuce seeds = assay: Filter paper bioassay on germination and early development of Lettuce seeds; details: lowest concentration causing malformation of radicle or shoots, visually assessed six days after beginning, 0 to 1 mmol/l; for minimal effective concentration: 144 h, read-out: MEC, score (Minimal Effective Concentration, activity score) (converted)
Description: Materials: Seeds of Lettuce R. (Super-Jericho, non-sterilized) were obtained from Ben Shahar Moshe Ltd., 99% purity. The test compounds listed in Table 3 below were synthesized de novo or purchased from different vendors. Bioassays: Filter Paper Bioassays with Lettuce seeds were performed following Bertin et al. 2009 with modifications as described below. Seeds were placed on Whatman no. 1 filter paper (Whatman, Middlesex, U.K.) in Petri dishes (10 seeds per plate) with 2.0 ml of an aqueous solution of test material in a concentration ranging from 0 (control) to 1 mmol/l. The Petri dishes were arranged in a tray tilted at a 45-degree angle and were kept in the dark for 48 hours. Then trays with plates were transferred to the growth chamber with a 6/18 dark/light cycle for four days. Each experiment was performed in at least two repeats.
The development of plants' radicles and shoots was visually assessed six days after the beginning of the test to determine the Minimal Effective Concentration (MEC) of a test material. In the context of the invention, MEC is defined as the lowest concentration level of a test material that caused deviation (malformation of radicle or shoots).

Abutilon = assay: Post-emergence herbicidal effect on potted weeds; details: 2-3 true leaves, up to 5 mg/pot, scale 0 (dead plants) to 5 (healthy, as control)
Description: (§1) Weed seeds were sawn in 0.3-liter pots containing medium-heavy clay-loam soil from organic fields (55% clay, 23% silt, 20% sand, 2% organic matter, pH 7.1). The experiment was conducted in a completely randomized design. Each treatment was replicated three times (3 pots). Each compound was typically tested on a weed panel which included Amaranth, Abutilon, Malva, Silybum, and Sinapis. The herbicides were applied at doses from 0 (control) to 5 mg/pot. The herbicides were applied on grown plants at stage 2-3 true leaves (post-emergence treatment). The plants were grown in the mesh house during the entire experiment. Plant development at 6, 12, 19, 26, and 32 days after application (DAA) was evaluated on a scale of 0 to 5, in which 0 represents dead plants, and 5 represents healthy plants similar or not different from Control. In the context of the invention, the herbicidal effect was expressed as a score calculated as an average of assessments of plants' vigor, height, and leaf color.

Amaranth = assay: Post-emergence herbicidal effect on potted weeds; details: 2-3 true leaves, up to 5 mg/pot, scale 0 (dead plants) to 5 (healthy, as control)
Description: as §1

Lactuca = assay: Post-emergence herbicidal effect on potted weeds; details: 2-3 true leaves, up to 5 mg/pot, scale 0 (dead plants) to 5 (healthy, as control)
Description: as §1

Lettuce = assay: Post-emergence herbicidal effect on potted weeds; details: 2-3 true leaves, up to 5 mg/pot, scale 0 (dead plants) to 5 (healthy, as control)
Description: as §1

Malva = assay: Post-emergence herbicidal effect on potted weeds; details: 2-3 true leaves, up to 5 mg/pot, scale 0 (dead plants) to 5 (healthy, as control)
Description: as §1

Silybum = assay: Post-emergence herbicidal effect on potted weeds; details: 2-3 true leaves, up to 5 mg/pot, scale 0 (dead plants) to 5 (healthy, as control)
Description: as §1

Sinapis = assay: Post-emergence herbicidal effect on potted weeds; details: 2-3 true leaves, up to 5 mg/pot, scale 0 (dead plants) to 5 (healthy, as control)
Description: as §1

Solanum = assay: Post-emergence herbicidal effect on potted weeds; details: 2-3 true leaves, up to 5 mg/pot, scale 0 (dead plants) to 5 (healthy, as control)
Description: as §1

Trifolium = assay: Post-emergence herbicidal effect on potted weeds; details: 2-3 true leaves, up to 5 mg/pot, scale 0 (dead plants) to 5 (healthy, as control)
Description: as §1

Verbesina = assay: Post-emergence herbicidal effect on potted weeds; details: 2-3 true leaves, up to 5 mg/pot, scale 0 (dead plants) to 5 (healthy, as control)
Description: as §1

SMILES	activity score (Lettuce seeds) [score]	Average Herbicidal Effect, score (Abutilon)	Average Herbicidal Effect, score (Amaranth)	Average Herbicidal Effect, score (Lactuca)	Average Herbicidal Effect, score (Lettuce)	Average Herbicidal Effect, score (Malva)	Average Herbicidal Effect, score (Silybum)	Average Herbicidal Effect, score (Sinapis)	Average Herbicidal Effect, score (Solanum)	Average Herbicidal Effect, score (Trifolium)	Average Herbicidal Effect, score (Verbesina)	minimal effective concentration (Lettuce seeds) [µM]
CCOCCOCCOC(=O)COc1ccc(F)c(Br)n1 [compound 7156, 2-(2-ethoxyethoxy)ethyl 2-[(6-bromo-5-fluoropyridin-2-yl)oxy]acetate]	5.5	1	1	2	0	1	1	1	0	2	1	
CCOC(=O)COc1ccc(F)c(Br)n1 [compound 7118, ethyl [(6-bromo-5-fluoropyridin-2-yl)oxy]acetate]		4	1	3	5	1	1	1	0	2	2	< 1
O=C(O)COc1ccc(F)c(Br)n1 [compound 7157, [(6-bromo-5-fluoropyridin-2-yl)oxy]acetic acid]		3	0	2	1	1	1	1	0	2	0	1
